Columns and labels:
Experiment in all cases: relative viability (nuclei count vs DMSO), 5 days (fraction); higher = more cells survive
[1] = compound: CC1=C(C(=NN1)C)CC2=C(C3=C(S2)N(C(=O)N(C3=O)C)CC(C)C)C(=O)N4C[C@@H](CO4)O + CC1(C)CCC(c2ccc(Cl)cc2)=C(CN2CCN(c3ccc(C(=O)NS(=O)(=O)c4ccc(N[C@H](CCN5CCOCC5)CSc5ccccc5)c(S(=O)(=O)C(F)(F)F)c4)cc3)CC2)C1 [Navitoclax] (partner 0.5 µM)
Method in brief: (§1)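 Relative viability equals treated-well nuclei counts divided by vehicle-well nuclei counts. Counts came from 4× images of lung cancer cell lines grown in 1536-well plates for 5 days after pin-tool dosing on the day after seeding. Dosing used one drug alone or a fixed anchor-drug dose plus five library-drug doses (not always all listed) in √10 steps, and values are medians of duplicate plates.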

[2] = compound: CC1=C(C(=NN1)C)CC2=C(C3=C(S2)N(C(=O)N(C3=O)C)CC(C)C)C(=O)N4C[C@@H](CO4)O + CC(=O)c1c(C)c2cnc(Nc3ccc(N4CCNCC4)cn3)nc2n(C2CCCC2)c1=O [Palbociclib] (partner 0.5 µM)
Method in brief: as §1

[3] = compound: CC1=C(C(=NN1)C)CC2=C(C3=C(S2)N(C(=O)N(C3=O)C)CC(C)C)C(=O)N4C[C@@H](CO4)O + C[C@]1(O)C[C@@H](c2nc(-c3ccc4ccc(-c5ccccc5)nc4c3)c3c(N)nccn32)C1 [Linsitinib] (partner 1 µM)
Method in brief: as §1

[4] = compound: CC1=C(C(=NN1)C)CC2=C(C3=C(S2)N(C(=O)N(C3=O)C)CC(C)C)C(=O)N4C[C@@H](CO4)O + CC(=O)Nc1cccc(-n2c(=O)n(C3CC3)c(=O)c3c(Nc4ccc(I)cc4F)n(C)c(=O)c(C)c32)c1 [Trametinib] (partner 0.02 µM)
Method in brief: as §1

Cell Line | relative viability ([1]; first compound 0.0025 µM) | relative viability ([1]; first compound 0.007906 µM) | relative viability ([1]; first compound 0.025 µM) | relative viability ([1]; first compound 0.07906 µM) | relative viability ([1]; first compound 0.25 µM) | relative viability ([2]; first compound 0.0025 µM) | relative viability ([2]; first compound 0.007906 µM) | relative viability ([2]; first compound 0.025 µM) | relative viability ([2]; first compound 0.07906 µM) | relative viability ([2]; first compound 0.25 µM) | relative viability ([3]; first compound 0.0025 µM) | relative viability ([3]; first compound 0.007906 µM) | relative viability ([3]; first compound 0.025 µM) | relative viability ([3]; first compound 0.07906 µM) | relative viability ([3]; first compound 0.25 µM) | relative viability ([4]; first compound 0.0025 µM) | relative viability ([4]; first compound 0.007906 µM) | relative viability ([4]; first compound 0.025 µM) | relative viability ([4]; first compound 0.07906 µM) | relative viability ([4]; first compound 0.25 µM)
LK-2 | 0.884 | 0.852 | 0.746 | 0.983 | 0.949 | 0.642 | 0.715 | 0.646 | 0.626 | 0.457 | 0.695 | 0.674 | 0.495 | 0.566 | 0.815 | 0.703 | 0.952 | 0.651 | 0.613 | 0.61
LOU-NH91 | 0.773 | 0.604 | 0.776 | 0.809 | 0.788 | 0.535 | 0.565 | 0.508 | 0.496 | 0.526 | 0.958 | 0.843 | 1.06 | 1.12 | 1.02 | 0.802 | 0.756 | 0.812 | 0.826 | 0.792
LU99A | 0.74 | 0.887 | 0.76 | 0.845 | 0.458 | 0.476 | 0.493 | 0.41 | 0.436 | 0.391 | 0.592 | 0.542 | 0.522 | 0.583 | 0.567 | 0.522 | 0.606 | 0.452 | 0.57 | 0.532
LXF-289 | 0.885 | 0.904 | 0.94 | 0.935 | 1 | 0.525 | 0.605 | 0.574 | 0.586 | 0.613 | 1.02 | 0.919 | 0.957 | 0.953 | 1.04 | 0.705 | 0.702 | 0.669 | 0.641 | 0.689
NCI-H23 | 0.908 | 0.904 | 0.807 | 1.02 | 0.901 | 0.508 | 0.639 | 0.559 | 0.518 | 0.665 | 0.521 | 0.548 | 0.516 | 0.565 | 0.777 | 0.42 | 0.526 | 0.421 | 0.359 | 0.397
NCI-H322M | 1.22 | 1.18 | 1.18 | 1.29 | 1.06 | 0.557 | 0.467 | 0.536 | 0.441 | 0.505 | 0.92 | 0.975 | 0.942 | 0.899 | 0.722 | 0.503 | 0.577 | 0.471 | 0.527 | 0.433
NCI-H441 | 0.473 | 0.577 | 0.686 | 0.763 | 0.678 | 0.245 | 0.217 | 0.255 | 0.237 | 0.215 | 0.59 | 0.491 | 0.493 | 0.53 | 0.615 | 0.532 | 0.424 | 0.458 | 0.478 | 0.436
NCI-H460 | 1.19 | 1.26 | 0.994 | 1.13 | 1.34 | 0.181 | 0.199 | 0.204 | 0.226 | 0.217 | 0.736 | 0.577 | 0.789 | 1.09 | 1.19 | 0.158 | 0.149 | 0.186 | 0.136 | 0.206
NCI-H520 | 1.22 | 1.16 | 0.654 | 0.558 | 0.683 | 0.256 | 0.225 | 0.259 | 0.239 | 0.204 | 0.87 | 0.902 | 0.528 | 0.409 | 0.552 | 0.671 | 0.824 | 0.455 | 0.457 | 0.463
NCI-H647 | 1.15 | 1.43 | 1.01 | 1.32 | 1.42 | 0.376 | 0.409 | 0.441 | 0.518 | 0.287 | 1.33 | 1.37 | 1.33 | 1.24 | 1.44 | 0.506 | 0.582 | 0.579 | 0.558 | 0.448
NCI-H727 | 0.44 | 0.36 | 0.344 | 0.364 | 0.439 | 0.697 | 0.655 | 0.676 | 0.682 | 0.679 | 0.233 | 0.324 | 0.386 | 0.259 | 0.247 | 0.348 | 0.374 | 0.442 | 0.379 | 0.34
NCI-H838 | 1.22 | 1.24 | 1.12 | 1.16 | 1.25 | 0.206 | 0.193 | 0.182 | 0.275 | 0.182 | 1.02 | 1.08 | 0.987 | 1.02 | 1.04 | 0.498 | 0.569 | 0.393 | 0.452 | 0.505
NCI-H1355 | 0.955 | 0.96 | 1.02 | 0.853 | 0.894 | 0.413 | 0.459 | 0.408 | 0.401 | 0.414 | 0.889 | 0.927 | 0.867 | 0.791 | 0.785 | 0.461 | 0.423 | 0.472 | 0.402 | 0.442
NCI-H1395 | 1.09 | 0.931 | 1.01 | 0.859 | 0.886 | 0.682 | 0.614 | 0.595 | 0.606 | 0.663 | 0.965 | 0.902 | 0.917 | 0.988 | 0.89 | 1.07 | 0.988 | 0.994 | 1.04 | 1
NCI-H1437 | 1.16 | 1.2 | 1.08 | 1.1 | 1.09 | 0.357 | 0.348 | 0.284 | 0.296 | 0.303 | 1.03 | 1.21 | 1.01 | 1.1 | 1.08 | 0.617 | 0.675 | 0.543 | 0.563 | 0.511
NCI-H1651 | 1.11 | 1.06 | 1.01 | 0.912 | 1.05 | 0.54 | 0.562 | 0.493 | 0.532 | 0.508 | 1.03 | 1.26 | 0.944 | 0.908 | 1.06 | 0.865 | 0.861 | 0.849 | 0.798 | 0.819
NCI-H1666 | 0.969 | 0.954 | 1.01 | 1.14 | 1.1 | 0.702 | 0.641 | 0.734 | 0.591 | 0.636 | 0.834 | 0.839 | 1.06 | 0.884 | 0.847 | 0.876 | 0.824 | 0.885 | 0.786 | 0.891
NCI-H1734 | 0.843 | 1.1 | 0.772 | 0.931 | 1.02 | 0.328 | 0.396 | 0.349 | 0.307 | 0.322 | 0.925 | 1.05 | 0.861 | 0.947 | 0.881 | 0.666 | 0.757 | 0.675 | 0.62 | 0.665
NCI-H1755 | 1.05 | 1.03 | 1 | 1 | 1.06 | 0.452 | 0.462 | 0.412 | 0.424 | 0.45 | 1.05 | 1.03 | 0.975 | 0.957 | 0.976 | 0.829 | 0.818 | 0.745 | 0.73 | 0.761
NCI-H1792 | 0.608 | 0.572 | 0.445 | 0.509 | 0.524 | 0.777 | 0.747 | 0.665 | 0.604 | 0.627 | 0.722 | 0.541 | 0.487 | 0.402 | 0.344 | 0.471 | 0.418 | 0.409 | 0.548 | 0.585
NCI-H1793 | 0.617 | 0.415 | 0.411 | 0.435 | 0.501 | 0.3 | 0.36 | 0.324 | 0.313 | 0.3 | 0.726 | 0.868 | 0.834 | 0.66 | 0.926 | 0.378 | 0.435 | 0.392 | 0.455 | 0.36
NCI-H1915 | 0.81 | 0.789 | 0.763 | 0.79 | 0.832 | 0.563 | 0.574 | 0.522 | 0.532 | 0.539 | 1.12 | 1.13 | 1.08 | 1.05 | 1.17 | 0.295 | 0.307 | 0.288 | 0.302 | 0.32
NCI-H1944 | 1.03 | 1.04 | 1.08 | 1.08 | 1.02 | 0.328 | 0.335 | 0.337 | 0.314 | 0.363 | 1.13 | 1.1 | 1.27 | 1.15 | 1.07 | 0.422 | 0.438 | 0.478 | 0.396 | 0.385
NCI-H1975 | 1.13 | 1.18 | 1.15 | 1.19 | 1.21 | 0.624 | 0.706 | 0.66 | 0.623 | 0.699 | 0.956 | 1.04 | 1 | 0.949 | 1.08 | 0.38 | 0.358 | 0.403 | 0.491 | 0.33
NCI-H1993 | 0.949 | 0.959 | 0.92 | 0.94 | 0.925 | 0.689 | 0.731 | 0.709 | 0.597 | 0.75 | 0.75 | 0.678 | 0.855 | 0.781 | 0.74 | 0.627 | 0.0091 | 0.553 | 0.641 | 0.522
NCI-H2009 | 1.23 | 1.21 | 1.11 | 1.18 | 1.22 | 0.222 | 0.206 | 0.221 | 0.319 | 0.175 | 1.24 | 1.22 | 1.19 | 1.27 | 1.26 | 0.318 | 0.286 | 0.289 | 0.287 | 0.237

— the supplement of paper PMC10307832
